Data taken from US7074789B2, “Kinase inhibitors” (Amgen Inc., priority 1999, dated 2006).
Read-outs that look alike come from different tables or passages of the source.

Experiments:
Type in all cases: biochemical
AKT = molecular target: T1, AKT (Homo sapiens, UniProt Q9Y243); experiment: Kinase inhibition assay (33P transfer), AKT; details: Table 2, kinase inhibition class; read-out: AKT3-1
T1 construct: Kinases are expressed as either kinase domains or full length constructs; made in house
Text: (§1) The inhibitor compounds described herein are screened in the following manner. Kinases suitable for use in the following protocol to determine kinase activity of the compounds described herein include, -but are not limited to: Lck, Lyn, Src, Fyn, Syk, Zap-70, Itk, Tec, Btk, EGFR, ErbB2, Kdr, Flt-1, Flt-3, Tek, c-Met, InsR, and AKT.
(§2) Kinases are expressed as either kinase domains or full length constructs fused to glutathione S-transferase (GST) or polyHistidine tagged fusion proteins in either E. colior Baculovirus-High Five expression systems. […] In some instances, kinases are co-expressed or mixed with purified or partially purified regulatory polypeptides prior to measurement of activity.
(§3) Briefly, The transfer of ^33PO4 from ATP to the synthetic substrates poly(Glu, Tyr) 4:1 or poly(Arg, Ser) 3:1 attached to the bioactive surface of microtiter plates serves as the basis to evaluate enzyme activity. After an incubation period, the amount of phosphate transferred is measured by first washing the plate with 0.5% phosphoric acid, adding liquid scintillant, and then counting in a liquid scintillation detector.

Lck = molecular target: T2, Lck (Homo sapiens, UniProt P06239); experiment: Kinase inhibition assay (33P transfer), Lck; details: read-out: Lck-1
T2 construct: Kinases are expressed as either kinase domains or full length constructs; made in house
Text: as §1, §2, §3

c-Met = molecular target: T3, c-Met (Homo sapiens, UniProt P08581); experiment: Kinase inhibition assay (33P transfer), c-Met; details: Table 2, kinase inhibition class; read-out: Met-1
T3 construct: Kinases are expressed as either kinase domains or full length constructs; made in house
Text: as §1
(§4) Kinases are expressed as either kinase domains or full length constructs fused to glutathione S-transferase (GST) or polyHistidine tagged fusion proteins in either E. colior Baculovirus-High Five expression systems. They are purified to near homogeneity by affinity chromatography essentially as previously described (Lehr et al., 1996; Gish et al., 1995). In some instances, kinases are co-expressed or mixed with purified or partially purified regulatory polypeptides prior to measurement of activity.
as §3, with “Kinase activity and inhibition are measured essentially by established protocols (Braunwalder et al., 1996). Briefly,” for “Briefly,”, “detector. The IC50 is determined by the concentration of compound that causes a 50% reduction in the amount of […] incorporated onto the substrate bound to the plate.” for “detector.”

Kdr = molecular target: T4, Kdr (Homo sapiens, UniProt P35968); experiment: Kinase inhibition assay (33P transfer), Kdr; details: read-out: KDR-1
T4 construct: Kinases are expressed as either kinase domains or full length constructs; made in house
Text: as §1, §2, §3

EGFR = molecular target: T5, EGFR (Homo sapiens, UniProt P00533); experiment: Kinase inhibition assay (33P transfer), EGFR; details: Table 2, kinase inhibition class; read-out: EGFR-1
T5 construct: Kinases are expressed as either kinase domains or full length constructs; made in house
Text: as §1, §4
as §3, with “Kinase activity and inhibition are measured essentially by established protocols (Braunwalder et al., 1996). Briefly,” for “Briefly,”, “detector. The IC50 is determined by the concentration of compound that causes a 50% reduction in the amount of […] incorporated onto the substrate bound to the plate.” for “detector.”

Zap-70 = molecular target: T6, Zap-70 (Homo sapiens, UniProt P43403); experiment: Kinase inhibition assay (33P transfer), Zap-70; details: read-out: Zap-1
T6 construct: Kinases are expressed as either kinase domains or full length constructs; made in house
T6 sequence (P43403 1-619): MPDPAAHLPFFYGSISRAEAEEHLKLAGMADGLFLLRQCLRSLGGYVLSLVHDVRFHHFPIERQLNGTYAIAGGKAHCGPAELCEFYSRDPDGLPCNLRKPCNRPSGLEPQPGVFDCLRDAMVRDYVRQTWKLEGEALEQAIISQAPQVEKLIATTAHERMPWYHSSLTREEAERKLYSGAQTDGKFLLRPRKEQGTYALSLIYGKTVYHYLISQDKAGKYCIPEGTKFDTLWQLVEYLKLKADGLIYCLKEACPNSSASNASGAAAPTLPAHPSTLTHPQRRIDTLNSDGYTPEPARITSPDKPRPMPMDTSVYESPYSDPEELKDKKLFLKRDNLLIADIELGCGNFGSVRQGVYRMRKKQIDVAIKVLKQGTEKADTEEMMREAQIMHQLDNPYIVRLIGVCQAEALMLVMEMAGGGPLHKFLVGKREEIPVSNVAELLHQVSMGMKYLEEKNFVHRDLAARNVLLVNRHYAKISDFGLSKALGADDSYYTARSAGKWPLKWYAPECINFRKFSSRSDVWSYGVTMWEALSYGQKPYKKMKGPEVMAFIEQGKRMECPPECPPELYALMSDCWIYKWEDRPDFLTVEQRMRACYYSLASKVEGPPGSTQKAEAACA
Text: as §1, §2, §3

Itk = molecular target: T7, Itk (Homo sapiens, UniProt Q08881); experiment: Kinase inhibition assay (33P transfer), Itk; details: read-out: Itk-1
T7 construct: Kinases are expressed as either kinase domains or full length constructs; made in house
T7 sequence (Q08881 1-620): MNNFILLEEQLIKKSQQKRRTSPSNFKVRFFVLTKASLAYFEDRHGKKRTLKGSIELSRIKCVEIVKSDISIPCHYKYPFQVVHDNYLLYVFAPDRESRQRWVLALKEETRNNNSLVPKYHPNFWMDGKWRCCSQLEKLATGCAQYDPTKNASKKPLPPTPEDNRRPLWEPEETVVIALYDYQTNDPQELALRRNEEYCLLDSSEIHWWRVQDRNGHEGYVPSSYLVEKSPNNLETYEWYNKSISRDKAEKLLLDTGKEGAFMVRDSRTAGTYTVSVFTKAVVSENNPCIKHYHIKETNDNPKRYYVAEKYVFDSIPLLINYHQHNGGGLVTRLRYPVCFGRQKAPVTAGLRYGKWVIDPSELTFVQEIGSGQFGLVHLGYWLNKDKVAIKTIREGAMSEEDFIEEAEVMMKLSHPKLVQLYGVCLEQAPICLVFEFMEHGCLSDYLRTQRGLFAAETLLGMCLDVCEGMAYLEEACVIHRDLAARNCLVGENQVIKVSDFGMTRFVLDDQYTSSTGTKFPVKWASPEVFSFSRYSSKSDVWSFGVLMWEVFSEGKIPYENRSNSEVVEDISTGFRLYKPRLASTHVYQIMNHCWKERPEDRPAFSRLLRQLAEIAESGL
Text: as §1, §4
as §3, with “Kinase activity and inhibition are measured essentially by established protocols (Braunwalder et al., 1996). Briefly,” for “Briefly,”, “detector. The IC50 is determined by the concentration of compound that causes a 50% reduction in the amount of […] incorporated onto the substrate bound to the plate.” for “detector.”

T4 sequence (P35968 20-1356, species assumed): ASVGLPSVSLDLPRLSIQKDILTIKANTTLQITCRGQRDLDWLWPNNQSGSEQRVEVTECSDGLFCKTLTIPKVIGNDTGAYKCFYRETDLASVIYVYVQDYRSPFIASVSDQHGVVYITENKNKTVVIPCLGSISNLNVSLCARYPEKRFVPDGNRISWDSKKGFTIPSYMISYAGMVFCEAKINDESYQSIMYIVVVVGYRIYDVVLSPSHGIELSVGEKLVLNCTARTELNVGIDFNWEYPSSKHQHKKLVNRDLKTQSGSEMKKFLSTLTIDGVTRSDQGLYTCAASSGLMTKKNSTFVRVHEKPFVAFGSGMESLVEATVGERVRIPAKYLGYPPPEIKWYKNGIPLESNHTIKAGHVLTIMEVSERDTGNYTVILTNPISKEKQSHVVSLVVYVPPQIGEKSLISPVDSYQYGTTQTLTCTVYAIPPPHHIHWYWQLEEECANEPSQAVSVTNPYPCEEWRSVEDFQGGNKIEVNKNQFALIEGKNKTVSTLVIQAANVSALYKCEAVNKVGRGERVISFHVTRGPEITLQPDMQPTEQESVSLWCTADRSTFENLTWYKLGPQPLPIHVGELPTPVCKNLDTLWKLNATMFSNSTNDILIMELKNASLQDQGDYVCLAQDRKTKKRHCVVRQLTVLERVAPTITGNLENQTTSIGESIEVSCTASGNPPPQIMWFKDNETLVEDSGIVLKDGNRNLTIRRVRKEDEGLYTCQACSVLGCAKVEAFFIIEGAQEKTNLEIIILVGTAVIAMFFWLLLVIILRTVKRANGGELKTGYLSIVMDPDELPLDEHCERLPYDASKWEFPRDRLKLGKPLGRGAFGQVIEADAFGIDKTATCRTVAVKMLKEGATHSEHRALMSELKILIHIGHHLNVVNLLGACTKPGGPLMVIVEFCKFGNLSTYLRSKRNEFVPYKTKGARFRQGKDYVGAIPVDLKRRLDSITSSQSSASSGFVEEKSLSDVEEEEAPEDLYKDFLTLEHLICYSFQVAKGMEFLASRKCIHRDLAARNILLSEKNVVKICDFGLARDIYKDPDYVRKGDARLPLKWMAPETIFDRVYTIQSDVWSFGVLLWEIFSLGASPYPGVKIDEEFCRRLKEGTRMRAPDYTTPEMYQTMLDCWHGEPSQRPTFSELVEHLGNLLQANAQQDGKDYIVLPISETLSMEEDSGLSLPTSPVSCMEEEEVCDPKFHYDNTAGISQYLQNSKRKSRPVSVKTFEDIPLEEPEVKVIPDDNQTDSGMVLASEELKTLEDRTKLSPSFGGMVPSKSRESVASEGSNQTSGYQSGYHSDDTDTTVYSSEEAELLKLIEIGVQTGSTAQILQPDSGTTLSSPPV
T1 sequence (Q9Y243 whole entry, the tested form may be a part): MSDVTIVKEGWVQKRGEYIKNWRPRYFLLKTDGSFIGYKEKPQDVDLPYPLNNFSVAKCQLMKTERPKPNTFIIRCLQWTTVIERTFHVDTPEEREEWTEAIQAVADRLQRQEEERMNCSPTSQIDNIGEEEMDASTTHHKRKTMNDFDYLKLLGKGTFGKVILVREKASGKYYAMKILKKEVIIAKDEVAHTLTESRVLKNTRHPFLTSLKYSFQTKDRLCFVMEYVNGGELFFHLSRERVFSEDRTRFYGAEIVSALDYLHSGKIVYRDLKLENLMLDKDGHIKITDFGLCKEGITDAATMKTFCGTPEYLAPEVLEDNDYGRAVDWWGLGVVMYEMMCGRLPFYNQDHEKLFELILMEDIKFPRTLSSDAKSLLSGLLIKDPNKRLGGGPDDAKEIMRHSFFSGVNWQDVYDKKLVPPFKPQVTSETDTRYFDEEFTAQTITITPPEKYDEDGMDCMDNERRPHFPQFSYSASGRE
T3 sequence (P08581 25-1390): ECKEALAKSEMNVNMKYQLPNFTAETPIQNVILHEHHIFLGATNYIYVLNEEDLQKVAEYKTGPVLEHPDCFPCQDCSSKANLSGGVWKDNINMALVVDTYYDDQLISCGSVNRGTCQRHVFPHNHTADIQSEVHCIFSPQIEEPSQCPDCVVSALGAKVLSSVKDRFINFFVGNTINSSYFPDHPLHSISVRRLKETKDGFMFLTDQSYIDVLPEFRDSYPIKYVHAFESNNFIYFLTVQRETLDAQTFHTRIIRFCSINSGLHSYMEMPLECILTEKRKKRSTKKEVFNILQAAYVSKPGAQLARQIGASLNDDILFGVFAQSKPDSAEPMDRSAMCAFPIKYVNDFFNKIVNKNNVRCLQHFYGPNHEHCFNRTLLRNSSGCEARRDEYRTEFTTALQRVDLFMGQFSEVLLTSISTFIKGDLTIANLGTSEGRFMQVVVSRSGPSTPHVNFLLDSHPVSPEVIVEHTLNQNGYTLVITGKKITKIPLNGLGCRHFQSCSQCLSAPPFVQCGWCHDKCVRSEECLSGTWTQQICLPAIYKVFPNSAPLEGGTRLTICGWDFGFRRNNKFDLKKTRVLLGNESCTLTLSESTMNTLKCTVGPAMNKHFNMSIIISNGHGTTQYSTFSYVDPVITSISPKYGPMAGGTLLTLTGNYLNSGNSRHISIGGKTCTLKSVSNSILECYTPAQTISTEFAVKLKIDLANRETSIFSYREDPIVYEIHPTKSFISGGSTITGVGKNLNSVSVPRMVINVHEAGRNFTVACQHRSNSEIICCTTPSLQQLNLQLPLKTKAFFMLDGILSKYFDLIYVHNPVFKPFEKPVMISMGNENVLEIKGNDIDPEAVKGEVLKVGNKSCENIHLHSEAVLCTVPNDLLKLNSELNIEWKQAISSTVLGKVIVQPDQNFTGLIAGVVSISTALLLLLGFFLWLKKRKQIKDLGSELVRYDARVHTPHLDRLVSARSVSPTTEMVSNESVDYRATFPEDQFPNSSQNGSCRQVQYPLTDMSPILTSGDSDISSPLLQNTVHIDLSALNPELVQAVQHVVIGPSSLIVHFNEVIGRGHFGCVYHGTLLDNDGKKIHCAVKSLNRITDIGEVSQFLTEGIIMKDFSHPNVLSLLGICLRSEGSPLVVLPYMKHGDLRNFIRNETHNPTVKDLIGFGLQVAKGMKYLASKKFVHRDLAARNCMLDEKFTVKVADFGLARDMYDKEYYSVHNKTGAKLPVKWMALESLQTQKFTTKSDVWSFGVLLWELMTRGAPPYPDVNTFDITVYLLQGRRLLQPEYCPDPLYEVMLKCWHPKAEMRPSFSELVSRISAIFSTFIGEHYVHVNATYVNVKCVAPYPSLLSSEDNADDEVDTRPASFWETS
T5 sequence (P00533 25-1210, species assumed): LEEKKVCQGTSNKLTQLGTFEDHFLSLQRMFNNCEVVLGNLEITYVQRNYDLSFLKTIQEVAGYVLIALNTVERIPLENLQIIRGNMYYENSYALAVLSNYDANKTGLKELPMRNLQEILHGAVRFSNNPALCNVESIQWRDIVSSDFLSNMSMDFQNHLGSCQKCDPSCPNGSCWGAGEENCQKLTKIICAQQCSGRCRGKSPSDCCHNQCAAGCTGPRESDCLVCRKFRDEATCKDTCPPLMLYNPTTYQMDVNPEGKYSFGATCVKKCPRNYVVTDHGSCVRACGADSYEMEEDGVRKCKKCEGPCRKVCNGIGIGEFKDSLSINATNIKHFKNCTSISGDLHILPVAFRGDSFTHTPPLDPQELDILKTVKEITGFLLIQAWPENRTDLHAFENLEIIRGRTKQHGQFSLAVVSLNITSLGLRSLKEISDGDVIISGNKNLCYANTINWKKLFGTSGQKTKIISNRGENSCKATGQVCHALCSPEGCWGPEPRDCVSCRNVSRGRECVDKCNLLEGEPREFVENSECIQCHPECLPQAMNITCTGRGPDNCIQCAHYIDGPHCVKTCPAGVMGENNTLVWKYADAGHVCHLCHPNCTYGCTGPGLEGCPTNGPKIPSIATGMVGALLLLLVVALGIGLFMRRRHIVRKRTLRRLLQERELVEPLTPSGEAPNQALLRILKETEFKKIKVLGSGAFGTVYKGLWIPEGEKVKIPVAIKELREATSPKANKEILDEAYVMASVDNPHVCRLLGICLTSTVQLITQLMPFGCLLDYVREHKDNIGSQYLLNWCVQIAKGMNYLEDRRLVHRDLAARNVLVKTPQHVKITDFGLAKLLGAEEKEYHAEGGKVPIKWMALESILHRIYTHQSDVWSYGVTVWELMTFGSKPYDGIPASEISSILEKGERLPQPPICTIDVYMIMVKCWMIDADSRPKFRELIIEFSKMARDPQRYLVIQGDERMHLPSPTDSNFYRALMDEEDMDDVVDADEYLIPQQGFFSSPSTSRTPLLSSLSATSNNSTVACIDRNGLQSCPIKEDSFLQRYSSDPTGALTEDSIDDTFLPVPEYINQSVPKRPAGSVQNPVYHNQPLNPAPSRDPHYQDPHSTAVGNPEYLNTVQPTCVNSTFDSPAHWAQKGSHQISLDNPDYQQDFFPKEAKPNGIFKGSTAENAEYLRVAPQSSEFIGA
T2 sequence (P06239 whole entry, species assumed, the tested form may be a part): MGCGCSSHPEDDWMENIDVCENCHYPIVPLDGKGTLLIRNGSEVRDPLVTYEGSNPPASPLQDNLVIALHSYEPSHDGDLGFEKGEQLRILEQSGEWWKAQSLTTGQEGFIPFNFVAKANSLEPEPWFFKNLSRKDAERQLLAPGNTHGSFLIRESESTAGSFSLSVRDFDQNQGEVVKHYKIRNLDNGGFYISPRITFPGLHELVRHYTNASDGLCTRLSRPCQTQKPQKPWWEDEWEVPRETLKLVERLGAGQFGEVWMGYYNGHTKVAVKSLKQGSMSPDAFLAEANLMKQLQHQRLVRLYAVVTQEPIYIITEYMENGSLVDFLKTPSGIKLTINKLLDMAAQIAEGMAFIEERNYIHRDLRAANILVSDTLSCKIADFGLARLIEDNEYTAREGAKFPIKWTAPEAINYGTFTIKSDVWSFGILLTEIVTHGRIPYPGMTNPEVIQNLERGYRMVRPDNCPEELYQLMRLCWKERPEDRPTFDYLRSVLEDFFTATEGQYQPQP

IC50 (AKT) | IC50 (Lck; Table 3) | IC50 (c-Met) | IC50 (Kdr; Table 3) | IC50 (EGFR) | IC50 (Zap-70; Table 3) | IC50 (Itk; Table 3) | IC50 (Lck) | IC50 (Kdr) | IC50 (Zap-70) | IC50 (Itk) | SMILES
> 15.4 µM | > 15.4 µM | > 15.4 µM | > 15.4 µM | > 15.4 µM | > 15.4 µM | > 15.4 µM |  |  |  |  | COc1ncnc(Nc2cc(OC)c(OC)c(OC)c2)n1 [Compound 421]
> 13.3 µM | > 13.3 µM | 7.08 to 10.3 µM | 1.18 to 7.08 µM | > 13.3 µM | > 13.3 µM | > 13.3 µM |  |  |  |  | O=c1[nH]c2ccccc2n1-c1ncnc(Nc2ccc(Cl)cc2)n1 [Compound 458]
> 13.4 µM |  | > 13.4 µM |  | > 13.4 µM |  |  | > 13.4 µM | > 13.4 µM | > 13.4 µM | > 13.4 µM | COc1ccc(Nc2ncnc(-n3c(=O)[nH]c4ccccc43)n2)cn1 [Compound 489]
 | > 22.4 µM | > 22.4 µM | > 22.4 µM | > 22.4 µM | > 22.4 µM | > 22.4 µM |  |  |  |  | Cc1ccc(Nc2ncnc(N)n2)cc1 [Compound 1017]
> 9.67 µM |  | > 9.67 µM |  | > 9.67 µM |  |  | > 9.67 µM | > 9.67 µM | > 9.67 µM | > 9.67 µM | COc1cc(Nc2ncnc(-c3cccnc3NCCN3CCCCC3)n2)cc(OC)c1OC [Compound 1079]
 | > 16.6 µM | 12.9 to 16.6 µM | 1.47 to 8.83 µM | > 16.6 µM | > 16.6 µM | > 16.6 µM |  |  |  |  | Clc1cccc(Nc2ncnc(-n3cccc3)n2)c1 [Compound 275]
> 10.9 µM | 0.972 to 5.83 µM | > 10.9 µM | > 10.9 µM | > 10.9 µM | > 10.9 µM | > 10.9 µM |  |  |  |  | COc1cc(Nc2ncnc(-c3ccnc(NCCCN)c3)n2)cc(OC)c1OC [Compound 45]
> 13.7 µM |  | > 13.7 µM |  | > 13.7 µM |  |  | 1.21 to 7.29 µM | 1.21 to 7.29 µM | > 13.7 µM | > 13.7 µM | N#Cc1cccc(Nc2ncnc(-n3c(=O)[nH]c4ccccc43)n2)c1 [Compound 486]
 | > 20.3 µM | > 20.3 µM | 10.8 to 15.8 µM | > 20.3 µM | > 20.3 µM | > 20.3 µM |  |  |  |  | Nc1ncnc(Nc2cccc(Cl)c2)n1 [Compound 1019]
 | > 18.9 µM | > 18.9 µM | > 18.9 µM | > 18.9 µM | > 18.9 µM | > 18.9 µM |  |  |  |  | Nc1ncnc(Nc2cc(Cl)ccc2O)n1 [Compound 1022]
 | > 14.8 µM | > 14.8 µM | > 14.8 µM | > 14.8 µM | > 14.8 µM | > 14.8 µM |  |  |  |  | Nc1ncnc(Nc2nc(-c3ccc(Cl)cc3)cs2)n1 [Compound 1016]
 | > 17 µM | > 17 µM | > 17 µM | > 17 µM | > 17 µM | > 17 µM |  |  |  |  | Cc1cccc(Nc2ncnc(-n3cccc3)n2)c1C [Compound 281]
 | > 13.2 µM | > 13.2 µM | > 13.2 µM | > 13.2 µM | > 13.2 µM | > 13.2 µM |  |  |  |  | FC(F)(F)c1ccc(Cl)c(Nc2ncnc(-n3cccc3)n2)c1 [Compound 283]
 | > 15.7 µM | > 15.7 µM | > 15.7 µM | > 15.7 µM | > 15.7 µM | > 15.7 µM |  |  |  |  | ClCc1ccccc1Nc1ncnc(-n2cccc2)n1 [Compound 278]
 | > 16.8 µM | > 16.8 µM | > 16.8 µM | > 16.8 µM | > 16.8 µM | > 16.8 µM |  |  |  |  | COc1ccccc1Nc1ncnc(-n2cccc2)n1 [Compound 279]
 | > 15.1 µM | > 15.1 µM | > 15.1 µM | > 15.1 µM | > 15.1 µM | > 15.1 µM |  |  |  |  | COc1ccc(Nc2ncnc(-n3cccc3)n2)c(OC)c1 [Compound 273]
 | > 17.6 µM | > 17.6 µM | 13.7 to 17.6 µM | > 17.6 µM | > 17.6 µM | > 17.6 µM |  |  |  |  | Fc1ccc(Nc2ncnc(-n3cccc3)n2)cc1 [Compound 284]
 | > 16.6 µM | > 16.6 µM | > 16.6 µM | > 16.6 µM | > 16.6 µM | > 16.6 µM |  |  |  |  | Nc1ncnc(Nc2nc(-c3ccccc3)cs2)n1 [Compound 1020]
 | > 13.6 µM | 7.27 to 10.6 µM | > 13.6 µM | > 13.6 µM | > 13.6 µM | > 13.6 µM |  |  |  |  | Cc1cc(Br)ccc1Nc1ncnc(-n2cccc2)n1 [Compound 282]
 | > 20.2 µM | > 20.2 µM | > 20.2 µM | > 20.2 µM | > 20.2 µM | > 20.2 µM |  |  |  |  | Nc1ncnc(Nc2ccc(F)cc2F)n1 [Compound 1014]
 | > 15.2 µM | > 15.2 µM | > 15.2 µM | > 15.2 µM | > 15.2 µM | > 15.2 µM |  |  |  |  | Nc1ncnc(Nc2cccc(Nc3ncnc(N)n3)c2)n1 [Compound 1027]
 | > 17.6 µM | > 17.6 µM | > 17.6 µM | > 17.6 µM | > 17.6 µM | > 17.6 µM |  |  |  |  | Nc1ncnc(Nc2cccc(C(F)(F)F)c2)n1 [Compound 1015]
 | > 14.7 µM | > 14.7 µM | 1.31 to 7.84 µM | > 14.7 µM | > 14.7 µM | > 14.7 µM |  |  |  |  | Clc1cc(Cl)cc(Nc2ncnc(-n3cccc3)n2)c1 [Compound 274]
 | > 14.7 µM | > 14.7 µM | 1.31 to 7.86 µM | > 14.7 µM | > 14.7 µM | > 14.7 µM |  |  |  |  | FC(F)(F)c1cccc(Nc2ncnc(-n3cccc3)n2)c1 [Compound 277]
 | > 15.7 µM | > 15.7 µM | 1.4 to 8.4 µM | > 15.7 µM | > 15.7 µM | > 15.7 µM |  |  |  |  | Cc1ccc(Nc2ncnc(-n3cccc3)n2)cc1Cl [Compound 276]
 | > 14.2 µM | > 14.2 µM | > 14.2 µM | > 14.2 µM | 7.59 to 11.1 µM | > 14.2 µM |  |  |  |  | Brc1ccc(Nc2ncnc(-n3cccc3)n2)cc1 [Compound 272]

SMILES | IC50 (AKT) | IC50 (Lck; Table 3) | IC50 (c-Met) | IC50 (Kdr; Table 3) | IC50 (EGFR) | IC50 (Zap-70; Table 3) | IC50 (Itk; Table 3) | IC50 (Lck) | IC50 (Kdr) | IC50 (Zap-70) | IC50 (Itk)
Clc1ccccc1Nc1ncnc(-n2cccc2)n1 [Compound 280] |  | > 16.6 µM | > 16.6 µM | > 16.6 µM | > 16.6 µM | > 16.6 µM | > 16.6 µM |  |  |  | 
